This note sets out measurements from ChEMBL document CHEMBL5038592, “Discovery of MK-8153, a Potent and Selective ROMK Inhibitor and Novel Diuretic/Natriuretic” (J Med Chem, 2021).

Series [1] can be described thus: Drug metabolism in rhesus monkey hepatocytes assessed as N-acetylglucosamine conjugate metabolite formation by LC/MS analysis. In kind it is ADME, cell-based, Macaca mulatta, Hepatocyte.
Series [2] in a line: Terminal half life in Beagle dog at 2 mg/kg, po or 1 mg/kg, iv. In kind it is ADME, organism-based, Canis lupus familiaris. The following applies: in vivo, read-out: beta t1/2 (converted).
For series [3], the target named is T1, ATP-sensitive inward rectifier potassium channel 1 (Rattus norvegicus, UniProt P35560).
T1 sequence (P35560 whole entry): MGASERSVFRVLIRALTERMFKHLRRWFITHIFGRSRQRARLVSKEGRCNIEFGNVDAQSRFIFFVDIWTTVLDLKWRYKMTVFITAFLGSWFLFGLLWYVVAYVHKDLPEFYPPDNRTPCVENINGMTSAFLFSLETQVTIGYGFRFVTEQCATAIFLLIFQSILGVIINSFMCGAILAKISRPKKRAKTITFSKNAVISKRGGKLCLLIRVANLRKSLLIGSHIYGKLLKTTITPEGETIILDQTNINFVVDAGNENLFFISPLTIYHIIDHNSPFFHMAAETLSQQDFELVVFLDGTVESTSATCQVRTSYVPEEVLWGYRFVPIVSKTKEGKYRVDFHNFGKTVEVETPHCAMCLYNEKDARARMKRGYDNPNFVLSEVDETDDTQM
Put plainly: Inhibition of rat Kir1.1 expressed in HEK293 cells by electrophysiology assay. It is filed as cell-based.

Series [4] is described as follows: Effective half life in rhesus monkey at 2 mg/kg, po or 1 mg/kg, iv. In kind it is ADME, organism-based, Macaca mulatta. The following applies: in vivo, read-out: t1/2eff (converted).
Another series has as its target Cytochrome P450 3A4 (Homo sapiens, UniProt P08684). Put plainly: Inhibition of CYP3A4 (unknown origin).
Series [5] in a line: Tmax in rhesus monkey at 2 mg/kg, po or 1 mg/kg, iv. It is filed as ADME, organism-based, Macaca mulatta. The following applies: in vivo.
Series [6] relates to Rattus norvegicus. The series is described as follows: Antihypertensive activity in spontaneous hypertensive rat model assessed as decrease in systolic blood pressure at 3 mg/kg, po QD observed for 3 days. In kind it is functional, organism-based. As to conditions: time 3.0 day.
In series [7] the target is Voltage-dependent L-type calcium channel subunit alpha-1C (Homo sapiens, UniProt Q13936). The series is described as follows: Inhibition of Cav1.2 (unknown origin).
Chain of Voltage-dependent L-type calcium channel subunit alpha-1C (Q13936 whole entry): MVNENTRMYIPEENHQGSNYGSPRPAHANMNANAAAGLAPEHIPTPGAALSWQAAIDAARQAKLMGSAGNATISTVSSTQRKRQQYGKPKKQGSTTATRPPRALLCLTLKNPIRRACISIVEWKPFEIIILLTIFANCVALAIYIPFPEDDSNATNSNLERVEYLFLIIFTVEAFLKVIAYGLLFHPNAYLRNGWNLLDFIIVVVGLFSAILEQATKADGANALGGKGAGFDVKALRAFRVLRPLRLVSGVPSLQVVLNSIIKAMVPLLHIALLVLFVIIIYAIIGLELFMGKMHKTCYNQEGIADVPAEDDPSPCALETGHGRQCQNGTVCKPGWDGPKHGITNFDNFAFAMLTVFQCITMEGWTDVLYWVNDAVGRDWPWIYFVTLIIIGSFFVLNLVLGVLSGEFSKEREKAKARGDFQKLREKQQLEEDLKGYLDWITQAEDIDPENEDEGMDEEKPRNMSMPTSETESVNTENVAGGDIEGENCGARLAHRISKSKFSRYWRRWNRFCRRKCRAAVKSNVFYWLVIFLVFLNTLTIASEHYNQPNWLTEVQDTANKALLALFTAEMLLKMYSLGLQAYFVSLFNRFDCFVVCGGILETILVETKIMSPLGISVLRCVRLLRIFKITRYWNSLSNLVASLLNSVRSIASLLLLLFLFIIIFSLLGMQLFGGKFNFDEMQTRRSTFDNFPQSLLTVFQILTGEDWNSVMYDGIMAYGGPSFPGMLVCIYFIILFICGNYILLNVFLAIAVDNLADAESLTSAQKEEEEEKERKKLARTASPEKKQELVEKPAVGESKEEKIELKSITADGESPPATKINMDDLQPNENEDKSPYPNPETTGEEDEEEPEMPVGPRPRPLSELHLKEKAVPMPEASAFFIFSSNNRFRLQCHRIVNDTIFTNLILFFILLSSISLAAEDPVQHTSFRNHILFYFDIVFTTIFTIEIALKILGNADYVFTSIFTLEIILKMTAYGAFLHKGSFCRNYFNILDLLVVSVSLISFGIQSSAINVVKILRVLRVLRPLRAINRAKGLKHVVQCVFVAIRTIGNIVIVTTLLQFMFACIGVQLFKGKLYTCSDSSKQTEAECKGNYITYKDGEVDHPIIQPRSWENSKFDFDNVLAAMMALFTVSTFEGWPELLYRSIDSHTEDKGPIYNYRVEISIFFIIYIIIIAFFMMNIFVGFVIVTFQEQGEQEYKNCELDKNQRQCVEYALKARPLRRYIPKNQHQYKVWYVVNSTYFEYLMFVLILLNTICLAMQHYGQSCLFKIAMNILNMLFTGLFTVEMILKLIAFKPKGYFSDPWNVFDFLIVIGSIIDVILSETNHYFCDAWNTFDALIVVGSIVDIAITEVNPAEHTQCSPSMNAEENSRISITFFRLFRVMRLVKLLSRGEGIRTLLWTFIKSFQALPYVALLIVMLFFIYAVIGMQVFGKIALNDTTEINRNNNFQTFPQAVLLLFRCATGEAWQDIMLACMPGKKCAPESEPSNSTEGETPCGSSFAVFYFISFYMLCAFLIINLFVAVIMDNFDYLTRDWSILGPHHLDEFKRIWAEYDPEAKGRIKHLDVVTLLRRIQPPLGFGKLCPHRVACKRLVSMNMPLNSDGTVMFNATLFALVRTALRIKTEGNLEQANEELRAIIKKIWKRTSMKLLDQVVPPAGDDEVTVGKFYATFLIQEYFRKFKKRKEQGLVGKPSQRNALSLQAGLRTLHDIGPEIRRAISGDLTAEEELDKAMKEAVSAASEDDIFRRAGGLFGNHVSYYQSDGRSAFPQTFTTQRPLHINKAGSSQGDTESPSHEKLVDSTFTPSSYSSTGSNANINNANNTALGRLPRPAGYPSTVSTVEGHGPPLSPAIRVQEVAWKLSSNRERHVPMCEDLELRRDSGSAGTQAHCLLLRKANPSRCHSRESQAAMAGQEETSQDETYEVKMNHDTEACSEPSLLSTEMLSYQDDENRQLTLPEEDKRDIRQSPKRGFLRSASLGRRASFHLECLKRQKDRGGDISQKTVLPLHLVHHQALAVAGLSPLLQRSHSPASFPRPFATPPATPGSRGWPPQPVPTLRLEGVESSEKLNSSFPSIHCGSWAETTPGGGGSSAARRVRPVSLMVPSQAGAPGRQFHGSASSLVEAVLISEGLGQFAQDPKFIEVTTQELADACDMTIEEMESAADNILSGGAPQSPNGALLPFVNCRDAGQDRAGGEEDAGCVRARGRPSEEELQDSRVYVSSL
Series [8] is described as follows: Terminal half life in Wistar Han rat at 2 mg/kg, po or 1 mg/kg, iv. It is filed as ADME, organism-based. As to conditions: in vivo, read-out: beta t1/2 (converted).
Series [9] can be described thus: AUC (0 to infinity) in Beagle dog at 2 mg/kg, po or 1 mg/kg, iv. It is filed as ADME, organism-based, Canis lupus familiaris. More on the design: dose 2 mg/kg. The following applies: in vivo.
The nature of series [10]: Drug excretion in bile-duct cannulated rat assessed as urinary excretion. In kind it is ADME. The following applies: urine, read-out: Drug excretion.
Series [11] in a line: Volume of distribution at steady state in Beagle dog at 2 mg/kg, po or 1 mg/kg, iv. In kind it is ADME, organism-based, Canis lupus familiaris. The following applies: in vivo, read-out: Vdss.
Series [12] in a line: Tmax in Beagle dog at 2 mg/kg, po or 1 mg/kg, iv. It is filed as ADME, organism-based, Canis lupus familiaris. As to conditions: in vivo.
In the next series the target is T2, Cytochrome P450 2C8 (Homo sapiens, UniProt P10632).
T2 sequence (P10632 whole entry): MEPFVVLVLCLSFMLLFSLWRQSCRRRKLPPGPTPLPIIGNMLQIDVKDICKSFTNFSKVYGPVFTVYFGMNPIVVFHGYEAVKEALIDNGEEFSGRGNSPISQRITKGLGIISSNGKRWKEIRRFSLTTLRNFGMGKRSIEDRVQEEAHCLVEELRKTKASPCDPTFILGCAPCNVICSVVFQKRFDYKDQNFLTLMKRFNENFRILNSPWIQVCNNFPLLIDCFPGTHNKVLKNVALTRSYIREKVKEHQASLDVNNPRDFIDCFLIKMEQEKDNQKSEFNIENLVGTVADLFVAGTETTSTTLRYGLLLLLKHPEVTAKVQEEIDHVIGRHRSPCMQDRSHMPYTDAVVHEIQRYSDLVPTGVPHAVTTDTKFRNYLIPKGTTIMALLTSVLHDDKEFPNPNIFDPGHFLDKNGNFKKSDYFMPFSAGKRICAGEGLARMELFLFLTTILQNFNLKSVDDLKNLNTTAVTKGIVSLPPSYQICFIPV
Put plainly: Inhibition of CYP2C8 (unknown origin).

Series [13] addresses T3, ATP-sensitive inward rectifier potassium channel 1 (Homo sapiens, UniProt P48048).
T3 sequence (P48048 whole entry): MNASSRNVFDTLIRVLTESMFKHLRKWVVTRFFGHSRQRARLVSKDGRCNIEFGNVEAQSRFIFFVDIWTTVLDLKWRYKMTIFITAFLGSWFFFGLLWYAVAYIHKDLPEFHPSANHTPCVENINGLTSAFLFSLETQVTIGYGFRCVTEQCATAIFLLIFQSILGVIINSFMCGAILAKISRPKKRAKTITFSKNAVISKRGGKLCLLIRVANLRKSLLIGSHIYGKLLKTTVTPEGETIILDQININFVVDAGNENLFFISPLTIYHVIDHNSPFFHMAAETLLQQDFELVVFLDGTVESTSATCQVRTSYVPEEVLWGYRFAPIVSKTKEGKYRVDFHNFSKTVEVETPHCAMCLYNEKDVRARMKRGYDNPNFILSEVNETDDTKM
Put plainly: Inhibition of human ROMK expressed in CHO cells by whole cell voltage clamp electrophysiology assay. In kind it is cell-based.

For series [14], the system named is Rattus norvegicus. The series is described as follows: Diuretic activity in orally dosed spontaneous hypertensive rat assessed as increase in sodium excretion treated for 3 days measured after 0 to 4 hrs of dosing. In kind it is functional, organism-based. As to conditions: time 3.0 day.
Series [15] in a line: Clearance in Beagle dog at 2 mg/kg, po or 1 mg/kg, iv. As to conditions: in vivo. In kind it is ADME, organism-based, Canis lupus familiaris.
Series [16] can be described thus: Apparent permeability in pig LLC-PK1 cells.
A further series addresses Cytochrome P450 2C9 (Homo sapiens, UniProt P11712). The series is described as follows: Inhibition of CYP2C9 (unknown origin).

Chain of Cytochrome P450 3A4 (P08684 whole entry): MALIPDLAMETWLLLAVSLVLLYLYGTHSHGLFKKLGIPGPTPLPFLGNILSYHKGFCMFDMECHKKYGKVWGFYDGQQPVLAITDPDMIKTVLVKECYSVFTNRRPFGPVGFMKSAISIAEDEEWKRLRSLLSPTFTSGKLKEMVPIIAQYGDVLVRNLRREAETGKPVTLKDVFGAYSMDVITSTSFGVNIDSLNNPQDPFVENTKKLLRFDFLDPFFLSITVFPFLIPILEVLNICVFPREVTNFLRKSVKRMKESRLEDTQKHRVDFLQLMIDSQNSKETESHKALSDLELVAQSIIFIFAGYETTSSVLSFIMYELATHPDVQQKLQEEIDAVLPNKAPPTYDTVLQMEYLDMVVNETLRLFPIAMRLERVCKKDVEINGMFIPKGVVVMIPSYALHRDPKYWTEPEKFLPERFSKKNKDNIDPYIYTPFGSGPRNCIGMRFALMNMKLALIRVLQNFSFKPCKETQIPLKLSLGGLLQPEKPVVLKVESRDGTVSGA
Chain of Cytochrome P450 2C9 (P11712 whole entry): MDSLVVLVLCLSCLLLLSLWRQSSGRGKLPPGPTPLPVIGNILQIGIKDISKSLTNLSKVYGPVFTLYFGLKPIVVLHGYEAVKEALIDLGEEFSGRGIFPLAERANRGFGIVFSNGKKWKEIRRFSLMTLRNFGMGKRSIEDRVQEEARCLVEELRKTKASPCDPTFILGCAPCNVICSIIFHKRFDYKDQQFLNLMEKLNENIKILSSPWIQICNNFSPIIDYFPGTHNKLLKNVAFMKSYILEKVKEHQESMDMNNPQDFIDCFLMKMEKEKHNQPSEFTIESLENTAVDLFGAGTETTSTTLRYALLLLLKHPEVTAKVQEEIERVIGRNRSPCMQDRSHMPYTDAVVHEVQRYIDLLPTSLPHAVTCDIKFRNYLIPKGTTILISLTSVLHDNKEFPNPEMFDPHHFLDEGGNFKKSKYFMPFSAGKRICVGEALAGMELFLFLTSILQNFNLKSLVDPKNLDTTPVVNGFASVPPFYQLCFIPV

The IC50 is the midpoint of a concentration-inhibition curve. By Tmax is commonly meant the time from dosing to the highest level. One may read the AUC(0-inf) as total exposure, with the tail of the curve extrapolated. In general, Papp refers to the rate of passage across a membrane or cell layer, normalised by area and donor concentration. On to `CC1=C(N2CCC3(CCN(C[C@H](O)c4ccc5c(c4C)COC5=O)CC3)C2=O)COC1=O`, for which, in [1], the Drug metabolism entry is given as “Metabolite_Detected”. For the same compound, the figures for the half-life in series [2], in series [4] and in series [8] were 9.1 h, 1.8 h and 3.6 h, respectively. For the same compound, the IC50 in series [3] was 0.0028 µM; against Cytochrome P450 3A4 it was above 50 µM; in series [7], above 30 µM; against Cytochrome P450 2C8, above 50 µM; in series [13], 0.005 µM; on Cytochrome P450 2C9 it was above 50 µM. The Tmax in series [5] was determined as 0.5 h; in series [12], 0.8 h. Also, the Activity result with Rattus norvegicus [6] and with Rattus norvegicus [14] was “Dose-Dependent Effect” in each case. The area under the curve AUC(0-inf) in [9] was 15.1 µM·h. In [10], the dose excreted is 66%. The Vd in series [11] stood at 5.2 L/kg. In [15], this compound came in with a clearance of 8.7 mL/min/kg. The Papp in series [16] was found to be 21 ×10⁻⁶ cm/s.
